Data published in US12545680B2, “Substituted oxaspiro[4.5]decanes as mor receptor agonists” (SHANGHAI HAIYAN PHARMACEUTICAL TECHNOLOGY CO., LTD., priority 2020, dated 2026).
pEC50: −log10 of the molar value. Like-named read-outs stand apart in the source and are kept apart here.

Tests used:
MOR receptor (OPRM1) [1] = molecular target: T1, MOR receptor (OPRM1) (Homo sapiens, UniProt P35372); assay: HTRF-cAMP cell experiment; conditions: for cAMP Emax (%) Morphine was 100% / EC50 / pEC50: PathHunter CHO-K1 OPRM1 β-Arrestin cell line; for cAMP Emax (%) Morphine was 100% / Emax: maximum effect relative to morphine = 100%; for EC50: cAMP EC50 (nM); for EC50 / pEC50: NKH477-stimulated cAMP, HTRF; for pEC50: read-out: cAMP EC50; for Emax: read-out: cAMP Emax (%) Morphine was 100%, PathHunter CHO-K1 OPRM1 β-Arrestin cell line
T1 sequence (P35372 whole entry): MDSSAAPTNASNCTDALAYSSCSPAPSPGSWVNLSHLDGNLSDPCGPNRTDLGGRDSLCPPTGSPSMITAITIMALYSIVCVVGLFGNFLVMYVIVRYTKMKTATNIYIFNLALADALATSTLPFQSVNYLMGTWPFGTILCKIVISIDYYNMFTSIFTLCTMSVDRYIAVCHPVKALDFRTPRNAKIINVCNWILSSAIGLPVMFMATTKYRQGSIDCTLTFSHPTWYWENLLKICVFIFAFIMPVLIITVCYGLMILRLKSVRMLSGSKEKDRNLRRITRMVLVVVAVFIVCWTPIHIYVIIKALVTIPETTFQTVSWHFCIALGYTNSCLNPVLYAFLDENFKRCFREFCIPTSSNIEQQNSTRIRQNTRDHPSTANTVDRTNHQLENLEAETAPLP

MOR receptor (OPRM1) [2] = molecular target: T1, MOR receptor (OPRM1); assay: β-Arrestin cell experiment; conditions: maximum effect relative to morphine = 100%; for β-arrestin Emax (%) Morphine was 100%: PathHunter CHO-K1 OPRM1 β-Arrestin cell line; for Emax: read-out: β-arrestin Emax (%) Morphine was 100%, PathHunter CHO-K1 OPRM1 β-Arrestin cell line

Row | SMILES | cAMP Emax (%) Morphine was 100% (MOR receptor (OPRM1) [1]) [%] | EC50 (MOR receptor (OPRM1) [1]) [nM] | β-arrestin Emax (%) Morphine was 100% (MOR receptor (OPRM1) [2]) [%] | Emax (MOR receptor (OPRM1) [2]) [%] | pEC50 (MOR receptor (OPRM1) [1]) | Emax (MOR receptor (OPRM1) [1]) [%]
1 | CCC1CC(NCC[C@@]2(c3ccccn3)CCOC3(CCCC3)C2)c2ccnn21 (mixture of isomers) [Compound H-4-1, 6-ethyl-N-(2-((R)-9-(pyridin-2-yl)-6-oxaspiro[4.5]decan-9-yl)ethyl)-5,6-dihydro-4H-pyrrolo[1,2-b]pyrazol-4-amine] | 64.1 | 8 | 1.8 |  |  | 
2 | CCC1CC(NCC[C@@]2(c3ccccn3)CCOC3(CCCC3)C2)c2ccnn21 (mixture of isomers) [Compound H-4-2, 6-ethyl-N-(2-((R)-9-(pyridin-2-yl)-6-oxaspiro[4.5]decan-9-yl)ethyl)-5,6-dihydro-4H-pyrrolo[1,2-b]pyrazol-4-amine] | 91.8 | 18 | 4.8 |  |  | 
3 | CC1CC(NCC[C@@]2(c3ccccn3)CCOC3(CCCC3)C2)c2ccnn21 (mixture of isomers) [Compound H-12-1, 6-methyl-N-(2-((R)-9-(pyridin-2-yl)-6-oxaspiro[4.5]decan-9-yl)ethyl)-5,6-dihydro-4H-pyrrolo[1,2-b]pyrazol-4-amine] | 99.5 | 12 |  | 12 |  | 
4 | CC1CC(NCC[C@@]2(c3ccccn3)CCOC3(CCCC3)C2)c2ccnn21 (mixture of isomers) [Compound H-12-2, 6-methyl-N-(2-((R)-9-(pyridin-2-yl)-6-oxaspiro[4.5]decan-9-yl)ethyl)-5,6-dihydro-4H-pyrrolo[1,2-b]pyrazol-4-amine] | 77.8 |  | 15.7 |  | 7.92 | 
5 | c1ccc([C@]2(CCNC3CCn4nccc43)CCOC3(CCCC3)C2)nc1 (stereo partly drawn) [Compound H-1, N-(2-((R)-9-(pyridin-2-yl)-6-oxaspiro[4.5]decan-9-yl)ethyl)-5,6-dihydro-4H-pyrrolo[1,2-b]pyrazol-4-amine] |  | 49 |  | 29.7 |  | 125
6 | COC(C)(C)C1CC(NCC[C@@]2(c3ccccn3)CCOC3(CCCC3)C2)c2ccnn21 (stereo partly drawn) [Compound H-2, 6-(2-methoxypropan-2-yl)-N-(2-((R)-9-(pyridin-2-yl)-6-oxaspiro[4.5]decan-9-yl)ethyl)-5,6-dihydro-4H-pyrrolo[1,2-b]pyrazol-4-amine] |  | 47 |  | 6.2 |  | 93.2
7 | c1ccc([C@]2(CCNC3CC(C4CC4)n4nccc43)CCOC3(CCCC3)C2)nc1 (stereo partly drawn) [Compound H-3, 6-cyclopropyl-N-(2-((R)-9-(pyridin-2-yl)-6-oxaspiro[4.5]decan-9-yl)ethyl)-5,6-dihydro-4H-pyrrolo[1,2-b]pyrazol-4-amine] |  | 17 |  | 4.9 |  | 74.6
8 | c1ccc([C@]2(CCNC3CC(C4CCCC4)n4nccc43)CCOC3(CCCC3)C2)nc1 (stereo partly drawn) [Compound H-5, 6-cyclopentyl-N-(2-((R)-9-(pyridin-2-yl)-6-oxaspiro[4.5]decan-9-yl)ethyl)-5,6-dihydro-4H-pyrrolo[1,2-b]pyrazol-4-amine] |  |  |  | 4.8 |  | 
9 | CC(C)(C)C1CC(NCC[C@@]2(c3ccccn3)CCOC3(CCCC3)C2)c2ccnn21 (stereo partly drawn) [Compound H-6, 6-tert-butyl-N-(2-((R)-9-(pyridin-2-yl)-6-oxaspiro[4.5]decan-9-yl)ethyl)-5,6-dihydro-4H-pyrrolo[1,2-b]pyrazol-4-amine] |  | 9 |  | 15.3 |  | 99.6
10 | CC(C)(F)C1CC(NCC[C@@]2(c3ccccn3)CCOC3(CCCC3)C2)c2ccnn21 (stereo partly drawn) [Compound H-7, 6-(2-fluoropropan-2-yl)-N-(2-((R)-9-(pyridin-2-yl)-6-oxaspiro[4.5]decan-9-yl)ethyl)-5,6-dihydro-4H-pyrrolo[1,2-b]pyrazol-4-amine] |  | 29 |  | 22.1 |  | 105
11 | CC(C)C1CC(NCC[C@@]2(c3ccccn3)CCOC3(CCCC3)C2)c2c(F)cnn21 (stereo partly drawn) [Compound H-9, 3-fluoro-6-isopropyl-N-(2-((R)-9-(pyridin-2-yl)-6-oxaspiro[4.5]decan-9-yl)ethyl)-5,6-dihydro-4H-pyrrolo[1,2-b]pyrazol-4-amine] |  |  |  | 1 |  | 
12 | CC1(C2CC(NCC[C@@]3(c4ccccn4)CCOC4(CCCC4)C3)c3ccnn32)CC1 (stereo partly drawn) [Compound H-10, 6-(1-methylcyclopropyl)-N-(2-((R)-9-(pyridin-2-yl)-6-oxaspiro[4.5]decan-9-yl)ethyl)-5,6-dihydro-4H-pyrrolo[1,2-b]pyrazol-4-amine] |  | 11 |  | 5.1 |  | 74.7
13 | CC(C)C1CC(NCC[C@@]2(c3ccccn3)CCOC3(CCCC3)C2)c2ccnn21 (stereo partly drawn) [Compound H-11, 6-(isopropyl)-N-(2-((R)-9-(pyridin-2-yl)-6-oxaspiro[4.5]decan-9-yl)ethyl)-5,6-dihydro-4H-pyrrolo[1,2-b]pyrazol-4-amine] |  | 15 |  | 4.3 |  | 84.8
14 | CCCC1CC(NCC[C@@]2(c3ccccn3)CCOC3(CCCC3)C2)c2ccnn21 (stereo partly drawn) [Compound H-14, 6-propyl-N-(2-((R)-9-(pyridin-2-yl)-6-oxaspiro[4.5]decan-9-yl)ethyl)-5,6-dihydro-4H-pyrrolo[1,2-b]pyrazol-4-amine] |  | 31 |  | 7.2 |  | 73
15 | CCC(C)C1CC(NCC[C@@]2(c3ccccn3)CCOC3(CCCC3)C2)c2ccnn21 (stereo partly drawn) [Compound H-15, 6-(sec-butyl)-N-(2-((R)-9-(pyridin-2-yl)-6-oxaspiro[4.5]decan-9-yl)ethyl)-5,6-dihydro-4H-pyrrolo[1,2-b]pyrazol-4-amine] |  | 84 |  |  |  | 64.9
16 | FC(F)(F)C1(C2CC(NCC[C@@]3(c4ccccn4)CCOC4(CCCC4)C3)c3ccnn32)CC1 (stereo partly drawn) [Compound H-17, N-(2-((R)-9-(pyridin-2-yl)-6-oxaspiro[4.5]decan-9-yl)ethyl)-6-(1-(trifluoromethyl)cyclopropyl)-5,6-dihydro-4H-pyrrolo[1,2-b]pyrazol-4-amine] |  | 31 |  | 2.6 |  | 68.6
17 | CC(C)(C1CC(NCC[C@@]2(c3ccccn3)CCOC3(CCCC3)C2)c2ccnn21)C(F)(F)F (stereo partly drawn) [Compound H-18, N-(2-((R)-9-(pyridin-2-yl)-6-oxaspiro[4.5]decan-9-yl)ethyl)-6-(1,1,1,-trifluoro-2-methylprop-2-yl)-5,6-dihydro-4H-pyrrolo[1,2-b]pyrazol-4-amine] | 89.1 |  |  |  | 7.17 | 
18 | c1ccc([C@]2(CCNC3CC4(CCCC4)n4nccc43)CCOC3(CCCC3)C2)nc1 (stereo partly drawn) [Compound H-19, N-(2-((R)-9-(pyridin-2-yl)-6-oxaspiro[4.5]decan-9-yl)ethyl)-4′,5′-dihydrospiro[cyclopentane-1,6′-pyrrolo[1,2-b]pyrazol]-4′-amine] |  | 21 |  | 17.3 |  | 94.1
19 | c1ccc([C@]2(CCNC3CC4(CCOCC4)n4nccc43)CCOC3(CCCC3)C2)nc1 (stereo partly drawn) [Compound H-20, N-(2-((R)-9-(pyridin-2-yl)-6-oxaspiro[4.5]decan-9-yl)ethyl)-2,3,4′,5,5′,6-hexahydrospiro[pyran-4,6′-pyrrolo[1,2-b]pyrazol]-4′-amine] |  | 4 |  |  |  | 107
20 | c1ccc([C@]2(CCNC3CC4(CCC4)n4nccc43)CCOC3(CCCC3)C2)nc1 (stereo partly drawn) [Compound H-21, N-(2-((R)-9-(pyridin-2-yl)-6-oxaspiro[4.5]decan-9-yl)ethyl)-4′,5′-dihydrospiro[cyclobutane-1,6′-pyrrolo[1,2-b]pyrazol]-4′-amine] |  | 22 |  | 8 |  | 70.8
21 | CC1(C)CC(NCC[C@@]2(c3ccccn3)CCOC3(CCCC3)C2)c2ccnn21 (stereo partly drawn) [Compound H-22, 6,6-dimethyl-N-(2-((R)-9-(pyridin-2-yl)-6-oxaspiro[4.5]decan-9-yl)ethyl)-5,6-dihydro-4H-pyrrolo[1,2-b]pyrazol-4-amine] |  | 11 |  | 39.9 |  | 104
